Source: PubChem BioAssay AID260 (DTP/NCI, 2004)
Where “and” joins values, the source holds several entries; their conditions need not be identical. Identical values can stand only once. Toxic doses and inconclusive results are not listed.

Tested on: CD2F1 mice, intracerebral L1210 leukemia, survival T/C
Assay: NCI In Vivo Anticancer Drug Screen. Data for tumor model L1210 Leukemia (intracerebral) in CD2F1 (CDF1) mice
Details: higher = longer survival
Procedure: The antitumor activity of compounds was measured in mice bearing transplantable tumors. Survival or tumor size were measured and the results are expressed as the measurement made in the treated group (T) divided by the measurement made in the vehicle treated control group (C). The tumor model used in this assay is L1210 Leukemia (intracerebral) in CD2F1 (CDF1) mice

[1] = endpoint: median survival time, dose: 16.0 mg/kg/injection, schedule: Q01DX005 (ip), vehicle: saline with Tween-80
[2] = endpoint: median survival time, dose: 32.0 mg/kg/injection, schedule: Q01DX005 (ip), vehicle: saline with Tween-80
[3] = endpoint: median survival time, dose: 64.0 mg/kg/injection, schedule: Q01DX005 (ip), vehicle: saline with Tween-80
[4] = endpoint: median survival time, dose: 128.0 mg/kg/injection, schedule: Q01DX005 (ip), vehicle: saline with Tween-80
[5] = endpoint: median survival time, dose: 256.0 mg/kg/injection, schedule: Q01DX005 (ip), vehicle: saline with Tween-80

## O=NN(CCCl)C(=O)NC1CCC(=O)NC1=O (centres undefined)
endpoint: median survival time, dose: 2.0 mg/kg/injection, schedule: Q01DX001 (ip), vehicle: saline + alcohol
  T/C: 112 % of control
endpoint: median survival time, dose: 8.0 mg/kg/injection, schedule: Q01DX001 (ip), vehicle: DMSO
  T/C: 602 % of control
endpoint: median survival time, dose: 8.0 mg/kg/injection, schedule: Q01DX001 (ip), vehicle: saline + alcohol
  T/C: 192 % of control
endpoint: median survival time, dose: 8.0 mg/kg/injection, schedule: Q01DX001 (oral), vehicle: saline + alcohol
  T/C: 168 % of control
endpoint: median survival time, dose: 16.0 mg/kg/injection, schedule: Q01DX001 (ip), vehicle: DMSO
  T/C: 215 % of control
endpoint: median survival time, dose: 16.0 mg/kg/injection, schedule: Q01DX001 (ip), vehicle: saline + alcohol
  T/C: 224 % of control
endpoint: median survival time, dose: 16.0 mg/kg/injection, schedule: Q01DX001 (oral), vehicle: saline + alcohol
  T/C: 236 % of control
endpoint: median survival time, dose: 32.0 mg/kg/injection, schedule: Q01DX001 (ip), vehicle: DMSO
  T/C: 95 % of control
endpoint: median survival time, dose: 32.0 mg/kg/injection, schedule: Q01DX001 (ip), vehicle: saline + alcohol
  T/C: 389 % of control
endpoint: median survival time, dose: 32.0 mg/kg/injection, schedule: Q01DX001 (oral), vehicle: saline + alcohol
  T/C: 164 % of control
endpoint: median survival time, dose: 64.0 mg/kg/injection, schedule: Q01DX001 (oral), vehicle: saline + alcohol
  T/C: 97 % of control

## Nc1nc(=S)c2ncn(C3CC(O)C(CO)O3)c2[nH]1 (centres undefined)
endpoint: mean survival time, dose: 2.5 mg/kg/injection, schedule: Q01DX001 (ip), vehicle: steriod suspending solution
  T/C: 114 % of control
endpoint: mean survival time, dose: 10.0 mg/kg/injection, schedule: Q01DX001 (ip), vehicle: steriod suspending solution
  T/C: 118 % of control
endpoint: mean survival time, dose: 20.0 mg/kg/injection, schedule: Q01DX001 (ip), vehicle: steriod suspending solution
  T/C: 120 % of control

## CCC(C)N(C)/N=N/c1nc[nH]c1C(N)=O (centres undefined)
[1]
  T/C: 105 % of control
[2]
  T/C: 105 % of control
[3]
  T/C: 116 % of control
[4]
  T/C: 116 % of control

## CN(Cc1cnc2nc(N[Si](C)(C)C)nc(N[Si](C)(C)C)c2n1)c1ccc(C(=O)NC(CCC(=O)O[Si](C)(C)C)C(=O)O[Si](C)(C)C)cc1 (centres undefined)
endpoint: median survival time, dose: 1.9 mg/kg/injection, schedule: Q04DX003 (ip), vehicle: saline
  T/C: 107 % of control
endpoint: median survival time, dose: 3.8 mg/kg/injection, schedule: Q04DX003 (ip), vehicle: saline
  T/C: 121 % of control
endpoint: median survival time, dose: 30.0 mg/kg/injection, schedule: Q04DX003 (ip), vehicle: saline
  T/C: 150 % of control
endpoint: median survival time, dose: 60.0 mg/kg/injection, schedule: Q04DX003 (ip), vehicle: saline
  T/C: 157 % of control

## CCCCN(C)N=Nc1ccc([N+](=O)[O-])cc1C(N)=O
endpoint: mean survival time, dose: 100.0 mg/kg/injection, schedule: Q01DX009 (ip), vehicle: saline with Tween-80
  T/C: 112 % of control
endpoint: mean survival time, dose: 200.0 mg/kg/injection, schedule: Q01DX009 (ip), vehicle: saline with Tween-80
  T/C: 122 % of control
endpoint: mean survival time, dose: 400.0 mg/kg/injection, schedule: Q01DX009 (ip), vehicle: saline with Tween-80
  T/C: 100 % of control
endpoint: mean survival time, dose: 600.0 mg/kg/injection, schedule: Q01DX009 (ip), vehicle: saline with Tween-80
  T/C: 89 % of control
[2]
  T/C: 102 % of control
[3]
  T/C: 108 % of control
[4]
  T/C: 110 % of control
[5]
  T/C: 103 % of control

## N[C@@H](Cc1ccc(N(CCCl)CCCl)cc1)C(=O)O
endpoint: mean survival time, dose: 1.25 mg/kg/injection, schedule: Q01DX009 (ip), vehicle: saline
  T/C: 116 % of control
endpoint: mean survival time, dose: 2.5 mg/kg/injection, schedule: Q01DX009 (ip), vehicle: saline
  T/C: 120 % of control

## CN(C)N=Nc1ccc(Cl)cc1
endpoint: mean survival time, dose: 10.0 mg/kg/injection, schedule: Q01DX007 (ip), vehicle: DMSO
  T/C: 90 % of control
endpoint: mean survival time, dose: 20.0 mg/kg/injection, schedule: Q01DX007 (ip), vehicle: DMSO
  T/C: 91 % of control
endpoint: mean survival time, dose: 40.0 mg/kg/injection, schedule: Q01DX007 (ip), vehicle: DMSO
  T/C: 108 % of control
endpoint: mean survival time, dose: 80.0 mg/kg/injection, schedule: Q01DX007 (ip), vehicle: DMSO
  T/C: 87 % of control
endpoint: mean survival time, dose: 120.0 mg/kg/injection, schedule: Q01DX007 (ip), vehicle: DMSO
  T/C: 91 % of control

## CCCCCN(C)/N=N/c1nc[nH]c1C(N)=O
[1]
  T/C: 112 % of control
[2]
  T/C: 122 % of control
[5]
  T/C: 92 % of control

## COC(=O)c1cccc(N=NN(C)C)c1
endpoint: median survival time, dose: 8.0 mg/kg/injection, schedule: Q01DX005 (ip), vehicle: saline + alcohol
  T/C: 104 % of control
endpoint: median survival time, dose: 16.0 mg/kg/injection, schedule: Q01DX005 (ip), vehicle: saline + alcohol
  T/C: 100 % of control
endpoint: median survival time, dose: 32.0 mg/kg/injection, schedule: Q01DX005 (ip), vehicle: saline + alcohol
  T/C: 104 % of control
endpoint: median survival time, dose: 64.0 mg/kg/injection, schedule: Q01DX005 (ip), vehicle: saline + alcohol
  T/C: 113 % of control
endpoint: median survival time, dose: 128.0 mg/kg/injection, schedule: Q01DX005 (ip), vehicle: saline + alcohol
  T/C: 117 % of control

## Cc1c2ccncc2c(C)c2c1[nH]c1ccccc12
endpoint: mean survival time, dose: 10.0 mg/kg/injection, schedule: Q01DX009 (ip), vehicle: saline
  T/C: 157 % of control
endpoint: mean survival time, dose: 20.0 mg/kg/injection, schedule: Q01DX009 (ip), vehicle: saline
  T/C: 157 % of control

## COC(=O)NC1=C(N2CC2)C(=O)C(NC(=O)OC)=C(N2CC2)C1=O
endpoint: median survival time, dose: 0.37 mg/kg/injection, schedule: Q01DX009 (ip), vehicle: saline
  T/C: 112 % of control and 117 % of control
endpoint: median survival time, dose: 0.75 mg/kg/injection, schedule: Q01DX009 (ip), vehicle: saline
  T/C: 120 % of control and 122 % of control

## COc1cc(C[C@H]2c3cc(OC)c(OC)cc3CCN2C)c(Oc2cc3c(cc2OC)-c2c(OC)c(OC)cc4c2[C@H](C3)N(C)CC4)cc1OC
endpoint: median survival time, dose: 50.0 mg/kg/injection, schedule: Q01DX005 (ip), vehicle: Klucel (hydroxypropylcellulose) (HPC)
  T/C: 97 % of control
endpoint: median survival time, dose: 100.0 mg/kg/injection, schedule: Q01DX005 (ip), vehicle: Klucel (hydroxypropylcellulose) (HPC)
  T/C: 102 % of control
endpoint: median survival time, dose: 200.0 mg/kg/injection, schedule: Q01DX005 (ip), vehicle: Klucel (hydroxypropylcellulose) (HPC)
  T/C: 94 % of control

## CCCN(C)C(=O)N(CCCl)N=O
endpoint: median survival time, dose: 15.6 mg/kg/injection, schedule: Q01DX001 (ip), vehicle: DMSO
  T/C: 166 % of control
endpoint: median survival time, dose: 15.6 mg/kg/injection, schedule: Q01DX001 (oral), vehicle: saline + alcohol
  T/C: 113 % of control
endpoint: median survival time, dose: 31.3 mg/kg/injection, schedule: Q01DX001 (ip), vehicle: saline + alcohol
  T/C: 172 % of control
endpoint: median survival time, dose: 31.3 mg/kg/injection, schedule: Q01DX001 (oral), vehicle: saline + alcohol
  T/C: 154 % of control
endpoint: median survival time, dose: 62.5 mg/kg/injection, schedule: Q01DX001 (ip), vehicle: saline + alcohol
  T/C: 389 % of control
endpoint: median survival time, dose: 62.5 mg/kg/injection, schedule: Q01DX001 (oral), vehicle: saline + alcohol
  T/C: 271 % of control
endpoint: median survival time, dose: 125.0 mg/kg/injection, schedule: Q01DX001 (ip), vehicle: saline + alcohol
  T/C: 198 % of control
endpoint: median survival time, dose: 125.0 mg/kg/injection, schedule: Q01DX001 (oral), vehicle: saline + alcohol
  T/C: 490 % of control
endpoint: median survival time, dose: 250.0 mg/kg/injection, schedule: Q01DX001 (ip), vehicle: DMSO
  T/C: 169 % of control
endpoint: median survival time, dose: 250.0 mg/kg/injection, schedule: Q01DX001 (ip), vehicle: saline + alcohol
  T/C: 116 % of control
endpoint: median survival time, dose: 250.0 mg/kg/injection, schedule: Q01DX001 (oral), vehicle: saline + alcohol
  T/C: 97 % of control

## CN(CO)c1nc(N(C)CO)nc(N(C)CO)n1
endpoint: median survival time, dose: 3.12 mg/kg/injection, schedule: Q01DX009 (ip), vehicle: saline with Tween-80
  T/C: 101 % of control
endpoint: median survival time, dose: 6.25 mg/kg/injection, schedule: Q01DX009 (ip), vehicle: saline with Tween-80
  T/C: 96 % of control
endpoint: median survival time, dose: 12.5 mg/kg/injection, schedule: Q01DX009 (ip), vehicle: saline with Tween-80
  T/C: 100 % of control
endpoint: median survival time, dose: 25.0 mg/kg/injection, schedule: Q01DX009 (ip), vehicle: saline with Tween-80
  T/C: 95 % of control
endpoint: median survival time, dose: 50.0 mg/kg/injection, schedule: Q01DX009 (ip), vehicle: Klucel (hydroxypropylcellulose) (HPC)
  T/C: 104 % of control and 109 % of control
endpoint: median survival time, dose: 50.0 mg/kg/injection, schedule: Q01DX009 (ip), vehicle: saline with Tween-80
  T/C: 104 % of control
endpoint: median survival time, dose: 100.0 mg/kg/injection, schedule: Q01DX009 (ip), vehicle: Klucel (hydroxypropylcellulose) (HPC)
  T/C: 119 % of control and 116 % of control

## CN(C)N=Nc1ccc([N+](=O)[O-])cc1C(N)=O
[2]
  T/C: 100 % of control
[3]
  T/C: 98 % of control
[4]
  T/C: 121 % of control

## C[C@]12C=CC(=O)C=C1CC[C@@H]1[C@@H]2CC[C@]2(C)OC(=O)CC[C@@H]12
endpoint: median survival time, dose: 8.0 mg/kg/injection, schedule: Q01DX009 (ip), vehicle: saline with Tween-80
  T/C: 95 % of control and 111 % of control
endpoint: median survival time, dose: 16.0 mg/kg/injection, schedule: Q01DX009 (ip), vehicle: saline with Tween-80
  T/C: 98 % of control and 102 % of control
endpoint: median survival time, dose: 32.0 mg/kg/injection, schedule: Q01DX009 (ip), vehicle: saline with Tween-80
  T/C: 101 % of control and 102 % of control
endpoint: median survival time, dose: 64.0 mg/kg/injection, schedule: Q01DX009 (ip), vehicle: saline with Tween-80
  T/C: 93 % of control and 102 % of control
endpoint: median survival time, dose: 128.0 mg/kg/injection, schedule: Q01DX009 (ip), vehicle: saline with Tween-80
  T/C: 90 % of control and 98 % of control
endpoint: median survival time, dose: 256.0 mg/kg/injection, schedule: Q01DX009 (ip), vehicle: saline with Tween-80
  T/C: 90 % of control and 98 % of control
